Values quoted from earlier work in paper PMC7457146 (Epigenomics, 2012).
Values joined by “and” are separate entries in the source; they are usually repeats but may differ in a detail not shown here. Identical values can stand only once. “Also recorded” adds a separate entry of the source. Like-named read-outs stand apart in the source and are kept apart here.

Experiments:
multiple myeloma [1] = system: multiple myeloma
LNCaP cells = conditions: read-out: IC50 to induce growth delay
HDAC8 = conditions: ref Data supplied by Gloucester Pharmaceuticles Inc. and performed by Epigentek 2007
[2] = system: cutaneous T-cell lymphoma; conditions: CTCL
HDAC10 = conditions: ref Data supplied by Gloucester Pharmaceuticles Inc. and performed by Epigentek 2007
HDAC4 = conditions: ref Data supplied by Gloucester Pharmaceuticles Inc. and performed by Epigentek 2007
[3] = system: Prostate cancer: PC-3 and DU-145; conditions: read-out: Mean IC50; Prostate cancer cell lines, 72-h incubation; ref Data supplied by Gloucester Pharmaceuticals
[4] = system: malignant rhabdoid tumors; conditions: day 12; 1.2, 2.5 and 5 mg/kg on days 0, 4 and 8
HDAC11 = conditions: ref Data supplied by Gloucester Pharmaceuticles Inc. and performed by Epigentek 2007
HDAC9 = conditions: ref Data supplied by Gloucester Pharmaceuticles Inc. and performed by Epigentek 2007
HDAC7 = conditions: ref Data supplied by Gloucester Pharmaceuticles Inc. and performed by Epigentek 2007
acute myeloid leukemia [5] = conditions: AML, 13 mg/m^2 iv. over 4 h days 1, 8, 15 of 28-day cycle
CYP3A4 = conditions: CYP450 family CYP3A4 isoform
[6] = system: chronic lymphocytic leukemia
HDAC1 = conditions: ref Data supplied by Gloucester Pharmaceuticles Inc. and performed by Epigentek 2007
multiple myeloma [7] = conditions: with bortezomib and dexamethasone
[8] = 42 patients, Phase II trial
[9] = not given; remark: listed apart in the source
[10] = system: HBL2, Granta519 and Jeko1 MCL cell lines; conditions: belinostat 100–1000 nM or romidepsin 1–40 nM
[11] = system: pancreatic and other advanced solid tumors; conditions: in combination with gemcitabine
VEGF mRNA = conditions: PC-3 prostate cancer cells, after 12 h
HDAC3 = conditions: ref Data supplied by Gloucester Pharmaceuticles Inc. and performed by Epigentek 2007
[12] = system: Epstein-Barr virus-transformed lymphoblastoid cell tumors
HDAC6 = conditions: ref Data supplied by Gloucester Pharmaceuticles Inc. and performed by Epigentek 2007
refractory lung cancer = conditions: 17.8 mg/m^2 days 1 and 7 of 21-day cycles, 19 patients
acute myeloid leukemia [13] = conditions: ten AML patients, Phase I
[14] = system: cutaneous T-cell lymphoma
[15] = system: human lymphoma U-937 tumors; conditions: SCID mice with U-937 tumors; control median 20 days
[16] = system: cutaneous T-cell lymphoma; remark: listed apart in the source
HDAC2 = conditions: ref Data supplied by Gloucester Pharmaceuticles Inc. and performed by Epigentek 2007
[17] = not given; remark: listed apart in the source
[18] = nonhuman primates
HDAC5 = conditions: ref Data supplied by Gloucester Pharmaceuticles Inc. and performed by Epigentek 2007

In the case of C/C=C1\NC(=O)[C@H]2CSSCC/C=C/[C@H](CC(=O)N[C@H](C(C)C)C(=O)N2)OC(=O)[C@H](C(C)C)NC1=O [Romidepsin], the “Responses: SD” value (multiple myeloma [1]; Phase II, MM, 12 patients) is given as 11 SD, the clinical responses (multiple myeloma [1]; single agent 13 mg/m^2, 13 MM patients) is given as “no clinical responses were observed” and the “maximum tolerated dose (MTD)” value (HDAC activity; 4-h iv. infusion on days 1, 8 and 15 of a 28-day cycle, pharmacodynamic Phase I study) is given as 13 mg/m^2. The HDAC activity (HDAC activity; 24 h after treatment) was 59 % of baseline, the terminal elimination half-life (HDAC activity; at 13 mg/m^2) was 3.67 h and the HDAC activity (HDAC activity; immediately after treatment) was 24.6 % of baseline. For the same compound, the IC50 (LNCaP cells) was about 5.79 nM, the IC50 (HDAC8) was […] and the “complete response (CR) rate” value ([2]; identical in both studies) was 6%. For the same compound, the objective response rate ([2]; two studies) was 34% and 35%, the median response duration ([2]; two studies respectively) was […] and the IC50 (HDAC10) was 1170 nM. For the same compound, the IC50 (HDAC4) was 466 nM, the IC50 [3] was 2.98 nM and the mean tumor volume [4] was “significant reduction”. The half-life was “less than 3 h”, the terminal half-life (Phase I PK studies, two-compartment model) was 2.92 h and the “patients achieving SD as best response” value (colorectal cancer) was “four out of 25”. For the same compound, the IC50 (HDAC11) was 169 nM, the IC50 (HDAC9) was 6580 nM and the IC50 (HDAC7) was 2470 nM. For the same compound, the “patients with antileukemic activity” value (acute myeloid leukemia [5]) was “five out of seven”, the primary metabolising enzyme (CYP3A4) was “primarily metabolized by the CYP450 family CYP3A4 isoform” and the Responses ([6]; Phase I, CLL, 10 patients) was “no formal CR or PR; also recorded: No PR/CR (see text)”. For the same compound, the “average reduction in leukocyte counts” value ([6]; seven CLL patients with high peripheral white cell counts, range: 45–76%) was 58%, the IC50 (HDAC1) was 111 nM and the apoptosis (U266 myeloma cells; romidepsin 0.01 μmol/l (control 28%)) was 43%. For the same compound, the apoptosis (U266 myeloma cells; romidepsin 0.01 μmol/l with melphalan 10 μmol/l) was 73%, the median overall survival (multiple myeloma [7]) was “over 36 months” and the minimal responses (multiple myeloma [7]; 25 pretreated myeloma patients) was “three”. The “very good PRs” value (multiple myeloma [7]; 25 pretreated myeloma patients) was “seven”, the “median time to progression” value (multiple myeloma [7]; 95% CI: 5.5–19.6) was 7.2 months and the “ECGs with asymptomatic T-wave flattening (grade 1) or ST-segment depression (grade 2)” value [8] was “over 50%”. The aqueous solubility [9] was “limited aqueous solubility”, the “increase in MDR1” value (MDR1; malignant PBMCs of patients in NIH clinical trials) was “eightfold” and the “increase in MDR1” value (MDR1; normal PBMCs of patients in NIH clinical trials) was “sixfold”. The “interaction with bortezomib (3–4 nM)” value [10] was “synergism in all cell lines”, the “patients with SD lasting >4 cycles” value [11] was 12 and the “decrease in expression of VEGF mRNA” value (VEGF mRNA) was 51%. For the same compound, the IC50 (HDAC3) was 462 nM, the “survival at 30 days” value ([12]; mouse, in vivo) was 90% and the “increased level of active caspase 3” value ([12]; romidepsin-mediated apoptosis) was 12 fold. The IC50 (HDAC6) was […], the objective responses (refractory lung cancer) was “no objective responses” and the “patients with disease stabilization” value (refractory lung cancer) was “nine”. The “CR or PR” value (acute myeloid leukemia [13]) was “none achieved CR or PR”, the “clinically significant pruritus relief” value ([14]; 28 out of 65 patients with moderate-to-severe pruritus at baseline) was 43% and the “ORR (severity-weighted assessment tool)” value ([14]; 96 patients CTCL) was 34%. For the same compound, the “median duration of response” value ([14]; 96 patients CTCL) was […], the “median time to progression” value ([14]; 96 patients CTCL) was 8 months and the “median time to response” value ([14]; 96 patients CTCL) was 2 months. The “Responses: PR” value ([14]; Phase II, CTCL, 96 patients) was 24, the “Responses: SD” value ([14]; Phase II, CTCL, 96 patients) was 26 and the median survival [15] was 30.5 days and 33 days. For the same compound, the “median response duration for all patients” value ([16]; 71 patients advanced CTCL) was […], the “overall response rate (ORR)” value ([16]; 71 patients advanced CTCL, 14 mg/m^2 days 1, 8, 15 of 28-day cycle) was 34% and the “Responses: PR” value ([16]; Phase II, CTCL, 71 patients) was 20. The “Responses: SD” value ([16]; Phase II, CTCL, 71 patients) was 26, the IC50 (HDAC2) was […] and the “maximum tolerated dose (MTD)” value ([17]; 4-h iv. infusion, day 1 and 5 schedule, Sandor et al.) was 17.8 mg/m^2. For the same compound, the “maximum tolerated dose (MTD)” value ([17]; day 1, 8 and 15 schedule every 28 days, Marshall et al.) was 13.3 mg/m^2, the CNS penetration [18] was […] and the IC50 (HDAC5) was 567 nM.
For O=C(/C=C/c1cccc(S(=O)(=O)Nc2ccccc2)c1)NO [belinostat], the “interaction with bortezomib (3–4 nM)” value [10] is given as “synergism in all cell lines”.
In the case of N[C@@H](Cc1ccc(N(CCCl)CCCl)cc1)C(=O)O [melphalan], the apoptosis (U266 myeloma cells; melphalan 10 μmol/l (control 28%)) is listed as 44%.
For C/C=C1\NC(=O)[C@@H](CS)NC(=O)[C@@H](C(C)C)NC(=O)C[C@@H](/C=C/CCS)OC(=O)[C@H](C(C)C)NC1=O [Activated romidepsin], the IC50 (HDAC8) is listed as 34.3 nM, the IC50 (HDAC10) is listed as 368 nM and the IC50 (HDAC4) is listed as 95.7 nM. For the same compound, the IC50 (HDAC11) was 64.1 nM, the IC50 (HDAC9) was 2730 nM and the IC50 (HDAC7) was 279 nM. For the same compound, the IC50 (HDAC3) was 103 nM, the IC50 (HDAC6) was 32.6 nM and the IC50 (HDAC5) was 79.6 nM.
